Measured values published in patent EP0252983B1, “SALTS OF N-(VINYLOXIETHYL)DITHIOCARBAMIC ACID, METHOD OF OBTAINING THEREOF AND […] ON THEM” (priority 1985, dated 1987).
Like-named read-outs stand apart in the source and are kept apart here.

Columns and labels:
[1] = test system: Acremonium charticola; experiment: Mycelial growth inhibition on agar (contact activity); type: cell-based; conditions: Würzeagar
Experimental: (§1) Die Prüfungen werden nach dem Verfahren zur Ermittlung der Kontaktaktivität durchgeführt. Man verwendet das in Wasser gelöste Kalium-N-(vinyloxyäthyl)dithiocarbamat, führt es in ein Nährmedium ein und vergießt auf Petri-Schalen. Nach 24 Stunden wird mit Pilzmyzelium nach einem Stichverfahren geimpft. Dann temperiert man die Schalen innerhalb von 5 Tagen bei einer zwischen 24 und 26 °C liegenden Temperatur und mißt den Durchmesser von Pilzkolonien, ermittelt den Prozentsatz der Hemmung des Myzelwachstums (S) ausgehend von Angaben am 5. Tag nach der Abbott-Formel [drawing 13] worin dc für den Durchmesser der Pilzkolonien, de für den Durchmesser von Pilzkolonien in der Schale stehen, wo ein die zu prüfenden Stoffe enthaltendes Medium vorhanden ist. Dieses Verfahren zur Ermittlung der mikrobiologischen Aktivität ist in anderen Beispielen verwendet.
(§2) Die Pilzkulturen werden auf Würzeagar gezüchtet. Ergebnisse, erhalten bei der Prüfung der fungiziden Aktivität gegen reine Kulturen von Mikroorganismen, welche Bioschädigungen hervorrufen, sind in der Tabelle 1 dargestellt.

[2] = test system: Acremonium cowum; experiment: as above; type: cell-based; conditions: Würzeagar
Experimental: as §1, §2

[3] = test system: Cladosporium cladosporioides; experiment: as above; type: cell-based; conditions: Würzeagar
Experimental: as §1, §2

[4] = test system: Cladosporium resinae; experiment: as above; type: cell-based; conditions: Würzeagar
Experimental: as §1, §2

[5] = test system: Geotrichum candidum Link; experiment: as above; type: cell-based
Experimental: as §1, §2

[6] = test system: Oidium Sp.; experiment: as above; type: cell-based; conditions: Würzeagar
Experimental: as §1, §2

[7] = test system: Penicillium charlesii; experiment: as above; type: cell-based
Experimental: as §1, §2

[8] = test system: Penicillium chrysogenum; experiment: as above; type: cell-based
Experimental: as §1, §2

[9] = test system: Walrotiela subiculesa; experiment: as above; type: cell-based
Experimental: as §1, §2

[10] = test system: Fusarium moniliforme; experiment: as above; type: cell-based; conditions: concentration not given
Experimental: as §1
(§3) Tabelle 2 zeigt die Angaben für die fungizide Aktivität von Kalium-N-(vinyloxyäthyl)dithiocarbamat und bekannten wirksamen Fungiziden Poly arbazin und TMTD. Der zu prüfende Stoff wurde im Laufe der Versuche in Wasser aufgelöst, und die Kulturen wurden auf einem Kartoffel-Glukose-Nährmedium gezüchtet.

[11] = test system: Fusarium sambucinum; experiment: as above; type: cell-based; conditions: concentration not given
Experimental: as §1, §3

[12] = test system: Aspergillus niger; experiment: as above; type: cell-based; conditions: concentration not given
[13] = test system: Rhizoctonia solani; experiment: as above; type: cell-based; conditions: concentration not given
Experimental: as §1
Die fungizide Aktivität von Zink-bis-(N-vinyloxyäthyldithiocarbamat) gegen reine Kulturen von Pilzen Fusarium moniliforme, Fusarium sambucinum, Aspergillus niger, Rhizoctonia solani, Cladosporium resinae, Cladosporium cladosporioides, Acremonium cowum, Acremonium charticola, Penicillium chrysogenum, Penicillium charlesii Smith, Penicillium funiculosum, Geotrichum candidum Link, Walrotiela subiculesa, Oidium sp., Paecilomyces varioti, Stereum hirsutum wird gemäß Beispiel 8 untersucht.
(§4) Als Nährmedium dient Würzeagar.

[14] = test system: Sphaeropsis malorum; experiment: as above; type: cell-based; conditions: concentration not given
Experimental: as §1, §4

[15] = test system: Xantomonas malvacearum; experiment: Bacterial growth inhibition; type: cell-based; conditions: concentration not given
[16] = test system: Psoroptes cuniculi; experiment: Acaricidal activity on isolated mites; type: in vivo
Experimental: Die akarizide Aktivität der Stoffe wird an isolierten Milben Psoroptes cuniculi als Erreger der Psoroptesräude bei Kaninchen geprüft. Von frischen Verkrustungen von Kaninchen mit Psoroptesräude, werden zu diesem Zweck 50 Milbenexemplare (Larven, Nymphen, Imago) gewählt und in Petri-Schalen auf ein Filterpapierblatt übertragen. Dann bringt man auf Milben und die ganze Blattoberfläche 1,5 ml zu prüfende wäßrige Stofflösung in destilliertem Wasser auf. Die Schale wird mit Deckel verschlossen und in einen Thermostat bei 30 °C und Feuchtegehalt von 90 % angeordnet. Der Wirkstoff wird als wäßrige Lösung mit einer zwischen 0,0039 und 4 % liegenden Konzentration genommen. Als Vergleichsmuster dient gleichzeitig eine wäßrige Lösung von Chlorophos. Milben werden im Kontrollversuch (Kontrolle auf Lebensfähigkeit)mit 1,5 ml physiologischer Lösung behandelt und in einen anderen Thermostat unter gleichen Temperatur- und Feuchtigkeitsbedingungen aufgestellt.
Nach 1, 2, 4, 6 Stunden und alle 24 Stunden betrachtet man die Milben im Mikroskop und zählt die toten Milben. Aufgrund der Milbenvernichtung durch einen 24-stündigen Kontakt mit dem Wirkstoff ermittelt man die LK-50 Werte. Die Versuche werden 5mal wiederholt. Arithmetische Mittelwerte gibt Tabelle 14 an.

[17] = Acute toxicity (LD50) in mice; type: in vivo, weißen Mäusen; conditions: intraabdominale Applikation an weißen Mäusen
[18] = Solubility in water (descriptive); type: physicochemical
[19] = Storage stability (descriptive); type: physicochemical
[20] = test system: Bacillus; experiment: Bactericidal activity on agar (concentration of complete growth inhibition); type: cell-based; conditions: % bezogen auf den Wirkstoff; am 5. Tag
Experimental: (§5) Geprüft wird die bakterizide Aktivität von Kalium-, Natrium-, Zink- und Kupfersalzen der N-(Vinyloxyäthyl)dithiocarbamidsäure gegen Bakterien der Gattungen Bacillus, Micrococcus, Pseudomonas, Escherichia und Xantomonas.
(§6) Man stellt wäßrige Stofflösungen verschiedener Konzentration her, die so berechnet werden, daß die Stoffkonzentration in der Petri-Schale bei der Gabe von 1 ml Lösung in das geschmolzene Nährmedium (45 bis 50 °C) zwischen 0,003 und 25 % (bezogen auf den Wirkstoff) schwankt. Nach 18 bis 24 Stunden bringt man auf die Oberfläche des Nährmediums 0,1 ml wäßrige Suspension eintägiger reiner Kulturen von Bakterien auf und verteilt sie gleichmäßig. In Kontrollschalen verteilt sich 0,1 ml Wasser über die Oberfläche des Nährmediums. Die Inkubation erfolgt bei 37 °C innerhalb von 5 Tagen. Die Wirksamkeit der Stoffe wird nach dem Auftreten des Bakterienwachstums auf der Oberfläche des Nährmediums eingeschätzt. Die Prüfergebnisse sind in der Tabelle 13 dargestellt.

[21] = test system: Escherichia; experiment: as above; type: cell-based; conditions: % bezogen auf den Wirkstoff; am 5. Tag
Experimental: as §5, §6

[22] = test system: Micrococcus; experiment: as above; type: cell-based; conditions: % bezogen auf den Wirkstoff; am 5. Tag
Experimental: as §5, §6

[23] = test system: Pseudomonas; experiment: as above; type: cell-based; conditions: % bezogen auf den Wirkstoff; am 5. Tag
Experimental: as §5, §6

[24] = test system: Xantomonas; experiment: as above; type: cell-based; conditions: % bezogen auf den Wirkstoff; am 5. Tag
Experimental: as §5, §6

[25] = test system: gewöhnlichen Mehlkäfern und Schwarmspinnerraupen; experiment: Antifeedant activity; type: in vivo; conditions: Vergleichsmuster Brestan
Source text: Die Prüfung der antiphydanten Aktivität wurde an gewöhnlichen Mehlkäfern und Schwarmspinnerraupen durchgeführt.

[26] = test system: Cladosporium resinae; experiment: Mycelial growth inhibition on agar (contact activity); type: cell-based; conditions: Tabelle 12
[27] = test system: Cladosporium cladosporioides; experiment: as above; type: cell-based; conditions: Tabelle 12
[28] = test system: Acremonium cowum; experiment: as above; type: cell-based; conditions: Tabelle 12
[29] = test system: Acremonium charticola; experiment: as above; type: cell-based; conditions: Tabelle 12
[30] = Präparatkonzentration 0,0015 %, Würzeagar
[31] = Präparatkonzentration 0,003 %, Würzeagar
[32] = Präparatkonzentration 0,006 %, Würzeagar
[33] = Präparatkonzentration 0,012 %, Würzeagar
[34] = Konzentration des Praparats 0,1 %, Tabelle 12
[35] = Konzentration des Praparats 0,2 %, Tabelle 12
[36] = Konzentration des Praparats 0,4 %, Tabelle 12
[37] = Konzentration des Praparats 0,05 %, Tabelle 12
[38] = Konzentration des Praparats 0,8 %, Tabelle 12
[39] = Konzentration des Praparats 0,1 %
[40] = Konzentration des Praparats 0,2 %
[41] = Konzentration des Praparats 0,4 %
[42] = Konzentration des Praparats 0,05 %
[43] = Konzentration des Praparats 0,8 %

Compound: C=COCCNC(=S)S [Natrium-N-(vinyloxyäthyl)dithiocarbamat]
- Myzelhemmung in % ([1]; Präparatkonzentration 0,0015 %): 100%
- Myzelhemmung in % ([1]; Präparatkonzentration 0,003 %): 100%
- Myzelhemmung in % ([1]; Präparatkonzentration 0,006 %): 100%
- Myzelhemmung in % ([1]; Präparatkonzentration 0,012 %): 100%
- Myzelhemmung in % ([2]; Präparatkonzentration 0,0015 %): 100%
- Myzelhemmung in % ([2]; Präparatkonzentration 0,003 %): 100%
- Myzelhemmung in % ([2]; Präparatkonzentration 0,006 %): 100%
- Myzelhemmung in % ([2]; Präparatkonzentration 0,012 %): 100%
- Myzelhemmung in % ([3]; Präparatkonzentration 0,0015 %): 100%
- Myzelhemmung in % ([3]; Präparatkonzentration 0,003 %): 100%
- Myzelhemmung in % ([3]; Präparatkonzentration 0,006 %): 100%
- Myzelhemmung in % ([3]; Präparatkonzentration 0,012 %): 100%
- Myzelhemmung in % ([4]; Präparatkonzentration 0,0015 %): 90%
- Myzelhemmung in % ([4]; Präparatkonzentration 0,003 %): 100%
- Myzelhemmung in % ([4]; Präparatkonzentration 0,006 %): 100%
- Myzelhemmung in % ([4]; Präparatkonzentration 0,012 %): 100%
- Myzelhemmung in % [5, 30]: 5%
- Myzelhemmung in % [5, 31]: 40%
- Myzelhemmung in % [5, 32]: 75%
- Myzelhemmung in % [5, 33]: 100%
- Myzelhemmung in % ([6]; Präparatkonzentration 0,0015 %): 60%
- Myzelhemmung in % ([6]; Präparatkonzentration 0,003 %): 100%
- Myzelhemmung in % ([6]; Präparatkonzentration 0,006 %): 100%
- Myzelhemmung in % ([6]; Präparatkonzentration 0,012 %): 100%
- Myzelhemmung in % [7, 30]: 25%
- Myzelhemmung in % [7, 31]: 40%
- Myzelhemmung in % [7, 32]: 90%
- Myzelhemmung in % [7, 33]: 100%
- Myzelhemmung in % [8, 30]: 5%
- Myzelhemmung in % [8, 31]: 20%
- Myzelhemmung in % [8, 32]: 80%
- Myzelhemmung in % [8, 33]: 100%
- Myzelhemmung in % [9, 30]: 100%
- Myzelhemmung in % [9, 31]: 100%
- Myzelhemmung in % [9, 32]: 100%
- Myzelhemmung in % [9, 33]: 100%
- unterdrückt das Wachstum des Myzeliums der Pilze [10]: 100%
- unterdrückt das Wachstum des Myzeliums der Pilze [11]: 100%
- unterdrückt das Wachstum des Myzeliums der Pilze [12]: 100%
- unterdrückt das Wachstum des Myzeliums der Pilze [13]: 100%
- unterdrückt das Wachstum des Myzeliums der Pilze [14]: 100%
- unterdrückt das Wachstum von Bakterien [15]: 33%
- LK-50 % ([16]; 24-stündiger Kontakt mit dem Wirkstoff): 0,0022%
- Vernichtung von 100 % der Milben nach Stunden ([16]; Konzentration 0,0039 %): 48 Stunden
- Vernichtung von 100 % der Milben nach Stunden ([16]; Konzentration 0,0078 %): 24 Stunden
- Vernichtung von 100 % der Milben nach Stunden ([16]; Konzentration 0,0625 bis 0,125 %): 6 Stunden
- Vernichtung von 100 % der Milben nach Stunden ([16]; Konzentration 0,125 bis 0,5 %): 4 Stunden
- selektive Toxizität gegen Räudemilben, dem Chlorophos überlegen ([16]; gegenüber Chlorophos): ~400 mal
- LD50 ([17]; mouse, in vivo, ip, read-out: LD50): 260 mg/kg
- Löslichkeit in Wasser [18]: gut
- Lagerbeständigkeit [19]: lagerbeständig

Compound: Kupfer-N-(vinyloxyäthyl)dithiocarbamat
- Myzelhemmung in % [5, 34]: 100%
- Myzelhemmung in % [5, 35]: 100%
- Myzelhemmung in % [5, 36]: 100%
- Myzelhemmung in % [5, 37]: 30%
- Myzelhemmung in % [5, 38]: 100%
- Myzelhemmung in % [7, 34]: 26%
- Myzelhemmung in % [7, 35]: 37%
- Myzelhemmung in % [7, 36]: 92%
- Myzelhemmung in % [7, 37]: 24%
- Myzelhemmung in % [7, 38]: 100%
- Myzelhemmung in % [8, 34]: 4%
- Myzelhemmung in % [8, 35]: 40%
- Myzelhemmung in % [8, 36]: 85%
- Myzelhemmung in % [8, 37]: 4%
- Myzelhemmung in % [8, 38]: 100%
- Myzelhemmung in % [9, 34]: 50%
- Myzelhemmung in % [9, 35]: 45%
- Myzelhemmung in % [9, 36]: 100%
- Myzelhemmung in % [9, 37]: 0%
- Myzelhemmung in % [9, 38]: 100%
- Konzentrationen, welche das Bakterienwachstum völlig (100 %) hemmen [20]: 0,25%
- Konzentrationen, welche das Bakterienwachstum völlig (100 %) hemmen [21]: 0,25%
- Konzentrationen, welche das Bakterienwachstum völlig (100 %) hemmen [22]: 0,25%
- Konzentrationen, welche das Bakterienwachstum völlig (100 %) hemmen [23]: 0,25%
- Konzentrationen, welche das Bakterienwachstum völlig (100 %) hemmen [24]: 0,25%
- LD50 [17]: 267 mg/kg
- antiphydante Aktivität [25]: auf gleicher Höhe mit Brestan
- Löslichkeit in Wasser [18]: unlöslich
- Lagerbeständigkeit [19]: lagerbeständig
- Myzelhemmung in % [26, 39]: 43%
- Myzelhemmung in % [26, 40]: 75%
- Myzelhemmung in % [26, 41]: 100%
- Myzelhemmung in % [26, 42]: 34%
- Myzelhemmung in % [26, 43]: 100%
- Myzelhemmung in % [27, 39]: 100%
- Myzelhemmung in % [27, 40]: 100%
- Myzelhemmung in % [27, 41]: 100%
- Myzelhemmung in % [27, 42]: 45%
- Myzelhemmung in % [27, 43]: 100%
- Myzelhemmung in % [28, 39]: 100%
- Myzelhemmung in % [28, 40]: 100%
- Myzelhemmung in % [28, 41]: 100%
- Myzelhemmung in % [28, 42]: 50%
- Myzelhemmung in % [28, 43]: 100%
- Myzelhemmung in % [29, 39]: 50%
- Myzelhemmung in % [29, 40]: 100%
- Myzelhemmung in % [29, 41]: 100%
- Myzelhemmung in % [29, 42]: 43%
- Myzelhemmung in % [29, 43]: 100%
